According to patent US10947196B2, “Beta adrenergic agonist and methods of using the same” (CURASEN THERAPEUTICS, INC., priority 2019, dated 2021):
Like-named read-outs stand apart in the source and are kept apart here.

Legend:
β1-adrenergic receptor = β1-adrenergic receptor (Homo sapiens (Human), UniProt P08588); test: cAMP Gs dynamic HTRF assay, β1 expressing CHO cells; format: cell-based
How it was run: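 Intracellular cAMP quantified by Eu-donor/d2-acceptor HTRF after 30 min compound exposure at 37° C in stimulation buffer with IBMX. Concentrations ran 10 μM top, 5-fold steps, 10 points. Cell lines: 1321N1 astrocytoma and CHO expressing β1 or β2; EC50 via four-parameter fit, relative efficacy against isoproterenol.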

[1] = MDCK-MDR1 permeability assay; format: in vitro ADME; settings: dog, MDCK-MDR1, pH 7.4, 5 μM, 2 hours; for Papp A→B at 2 h, 5 μM: apical to basolateral; for Papp B→A at 2 h, 5 μM: basolateral to apical
Method: (§1) Preparation of MDCK-MDR1 Cells. Cell culture medium of was added to each well of the Transwell insert (50 μL) and reservoir (25 mL). The HTS transwell plates were then incubated at 37° C., 5% CO2 for 1 hour before cell seeding. MDCK-MDR1 cells were diluted to 1.56×10^6 cells/mL with culture medium and 50 μL of cell suspension were dispensed into the filter well of the 96-well HTS Transwell plate. Cells were cultivated for 4-8 days in a cell culture incubator at 37° C., 5% CO2, 95% relative humidity. Cell culture medium was replaced every other day, beginning no later than 24 hours after initial plating.
(§2) Preparation of Stock Solutions. 10 mM stock solutions of test compounds were prepared in DMSO. The stock solutions of positive controls were prepared in DMSO at the concentration of 10 mM. Metoprolol, prazosin and imatinib were used as control compounds in this assay.
(§3) Assessment of Cell Monolayer Integrity. Medium was removed from the reservoir and each Transwell insert and replaced with prewarmed fresh culture medium. Transepithelial electrical resistance (TEER) across the monolayer was measured using Millicell Epithelial Volt-Ohm measuring system (Millipore, USA). The Plate was returned to the incubator once the measurement was done. TEER value should be greater than 42 ohm·cm2, which indicates the well-qualified MDCK-MDR1 monolayer. The TEER value was calculated according to the following equation: TEER measurement (ohms)×Area of membrane(cm^2)=TEER value(ohm·cm^2)
(§4) Assay Procedures. The MDCK-MDR1 plate was removed from the incubator and washed twice with pre-warmed HBSS (10 mM HEPES, pH 7.4), and then incubated at 37° C. for 30 minutes. The stock solutions of test compounds and controls were diluted in DMSO to get 1 mM solutions and then diluted with HBSS (10 mM HEPES, pH 7.4) to get 5 μM working solutions. The final concentration of DMSO in the incubation system was 0.5%.
(§5) To determine the rate of drug transport in the apical to basolateral direction, 125 μL of 5 μM working solution of test compound and control compound were added to the Transwell insert (apical compartment), and transfer 50 μL sample (DO sample) immediately from the apical compartment to a new 96-well plate. The wells in the receiver plate (basolateral compartment) were filled with 235 μL of HBSS (10 mM HEPES, pH 7.4). The assay was performed in duplicate.
(§6) To determine the rate of drug transport in the basolateral to apical direction, 285 μL of 5 μM working solution of test compound and control compound were to the receiver plate wells (basolateral compartment), and transfer 50 μL sample (DO sample) immediately from the basolateral compartment to a new 96-well plate. The wells in the Transwell insert (apical compartment) were filled with 75 μL of HBSS (10 mM HEPES, pH 7.4). The plates were incubated at 37° C. for 2 hours. At the end of the incubation, 50 μL samples from donor sides (apical compartment for Ap→Bl flux, and basolateral compartment for Bl→Ap) and receiver sides (basolateral compartment for Ap→Bl flux, and apical compartment for Bl→Ap) were transferred to wells of a new 96-well plate, followed by the addition of 4 volume of cold methanol containing appropriate internal standards (IS). Samples were Vortexed for 5 minutes and then centrifuged at 3,220 g for 40 minutes. An aliquot of 100 μL of the supernatant was mixed with an appropriate volume of ultra-pure water before LC-MS/MS analysis.
(§7) To determine the Lucifer Yellow leakage after 2 hour transport period, stock solution of Lucifer yellow was prepared in DMSO and diluted with HBSS (10 mM HEPES, pH 7.4) to reach a final concentration of 100 μM. Lucifer yellow solution (100 μL) was added to each Transwell insert (apical compartment), followed by filling the wells in the receiver plate (basolateral compartment) with 300 μL of HBSS (10 mM HEPES, pH 7.4). […]

MDR1 = test: MDCK-MDR1 permeability assay; format: in vitro ADME; settings: dog, MDCK-MDR1, pH 7.4; Papp(B-A)/Papp(A-B)
Method: as §1, §2, §3, §4, §5, §6, §7

[2] = B1-AR, CHO-K cells, read-out: Average EC50 [Receptor subtype: B1-AR, Cell type: CHO-K]

β1-adrenergic receptor, sequence (P08588 whole entry, species assumed): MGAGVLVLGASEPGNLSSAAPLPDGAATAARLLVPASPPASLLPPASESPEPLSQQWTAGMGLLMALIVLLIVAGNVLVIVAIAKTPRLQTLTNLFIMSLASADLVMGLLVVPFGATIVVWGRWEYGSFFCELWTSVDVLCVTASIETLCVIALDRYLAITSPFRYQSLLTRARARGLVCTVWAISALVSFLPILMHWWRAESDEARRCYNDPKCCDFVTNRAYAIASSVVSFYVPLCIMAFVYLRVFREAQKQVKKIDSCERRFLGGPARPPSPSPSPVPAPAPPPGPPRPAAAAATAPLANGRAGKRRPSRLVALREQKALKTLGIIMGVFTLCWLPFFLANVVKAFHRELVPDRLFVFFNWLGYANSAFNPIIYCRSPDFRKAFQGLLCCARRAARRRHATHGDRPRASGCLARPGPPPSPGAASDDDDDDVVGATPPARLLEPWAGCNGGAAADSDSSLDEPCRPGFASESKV

Structure (SMILES) | EC50 (β1-adrenergic receptor; β1 EC50 (nM), cAMP HTRF) [nM] | Papp A→B at 2 h, 5 μM [1] [nm/s] | Papp B→A at 2 h, 5 μM [1] [nm/s] | efflux ratio at 2 h, 5 μM (MDR1) | Average pEC50 [Receptor subtype: B1-AR; Cell type: CHO-K1 (HitHunter)] (β1-adrenergic receptor; B1-AR) | EC50 (β1-adrenergic receptor; [2]) [nM]
CC(C)(C)NC[C@H](O)c1cccc(C(F)(F)F)n1 [Compound 03-3] | 10 to 100 | 253 | 198 | 0.78 |  | 
CC(C)(C)NC[C@H](O)c1cccc(C#N)n1 [Compound 03-5, (S)-6-(2-(tert-butylamino)-1-hydroxyethyl)picolinonitrile] |  | 152 | 162 | 1.06 | C (C = <7-6) | 100 to 1000
Cc1ncccc1[C@@H](O)CNC(C)(C)C [Compound 03-115] |  | 69.6 | 110 | 1.58 | C-D | > 1000
